Assay [1] relates to methicillin-resistant Staphylococcus aureus (MRSA) ATCC 33591. Format: cell-based. The following applies: MHB, 5 × 10^5 CFU/mL, 37°C, 18 h, triplicate. On the procedure: (§1) The antibacterial activity of the vCPPs was tested using a standard broth microdilution procedure ([Wikler et al., 2006]; [Wiegand et al., 2008]) to evaluate the bacterial growth inhibition and determine the minimal inhibitory concentration (MIC). The assay was performed using the following strains: Gram-positive Staphylococcus aureus (S. aureus) ATCC 25923 and methicillin-resistant Staphylococcus aureus (MRSA) ATCC 33591, and Gram-negative Escherichia coli (E. coli) ATCC 25922 and Pseudomonas aeruginosa (P. aeruginosa) ATCC 27853, obtained from American Type Culture Collection (ATCC) (Manassas, VA, USA). Bacterial suspensions were prepared by direct suspension of morphologically similar colonies on Mueller Hinton Broth (MHB) from BD (Franklin Lakes, NJ, USA) to a final concentration of 1 × 10^6 CFU/mL, and added to a sterile 96-well microtiter polypropylene plate from Corning (Corning, NY, USA) containing two-fold dilutions of each peptide. Final bacterial concentration was 5 × 10^5 CFU/mL whereas peptide concentrations ranged between 100 and 0.78 μM. The 96-well plate was incubated at 37°C for 18 h. The MIC was defined as the lowest peptide concentration required to inhibited visible bacterial growth. The assay was performed in triplicate.

The subject of assay [2] is Escherichia coli (E. coli) ATCC 25922. Format: cell-based. The following applies: MHB, 5 × 10^5 CFU/mL, 37°C, 18 h, triplicate. On the procedure:
as §1

The subject of assay [3] is Pseudomonas aeruginosa (P. aeruginosa) ATCC 27853. Format: cell-based. The following applies: MHB, 5 × 10^5 CFU/mL, 37°C, 18 h, triplicate. On the procedure: as §1
In assay [4] the test system is S. aureus. The format is cell-based, Staphylococcus aureus. The following applies: for bactericidal or bacteriostatic: bactericidal when MBC is equal or lower than four-fold MIC; for MBC: lowest concentration causing ≥99.9% cell death of the inoculum, TSA plates, 37°C, 24 h, triplicate. On the procedure: (§2) After the MIC assay, aliquots were removed from the wells with no visible bacterial growth, serially diluted in MHB, plated on nutrient-rich trypcase soy agar (TSA) plates from bioMérieux (Marcy l’Etoile, France), and incubated at 37°C for 24 h. […] The assay was performed in triplicate.

For assay [5], the system named is Staphylococcus aureus (S. aureus) ATCC 25923. The following applies: previous screen, ref Freire et al., 2015a; cited from earlier work.
In assay [6] the test system is Pseudomonas aeruginosa (P. aeruginosa) ATCC 27853. The following applies: previous screen, ref Freire et al., 2015a; cited from earlier work.
Assay [7] relates to S. aureus. Kind of assay: Time-kill assay. The format is cell-based, Staphylococcus aureus. The following applies: peptide at its MBC, after 30 min, MHB, 37°C, relative to control without peptide, three independent experiments. On the procedure: (§3) For viral protein-derived peptides displaying bactericidal activity, bacterial killing kinetics was determined by a conventional method based on colony counts obtained after different times of exposure of the bacterial cells to the peptides ([Barry et al., 1999]). The assay was performed using S. aureus and P. aeruginosa as representative strains of Gram-positive and Gram-negative bacteria, respectively. Bacterial suspensions prepared in MHB at 5 × 10^5 CFU/mL were treated with each peptide at final concentrations corresponding to their MBC, and incubated at 37°C and 200 rpm. A control of bacterial suspensions without peptide was performed under the same conditions. Aliquots of untreated and peptide-treated bacterial suspensions were withdrawn at 0, 15, 30, 60, 120, and 180 min, serially diluted in MHB, and plated on TSA plates. Bacterial colonies were counted after 24 h of incubation at 37°C. Viable bacteria (in CFU/mL) are reported as percentage of the control. The assay was performed in triplicate.

For assay [8], the system named is P. aeruginosa. In words: SYTOX Green uptake assay (membrane permeabilization, flow cytometry). Format: cell-based, Pseudomonas aeruginosa. The following applies: P. aeruginosa 5 × 10^5 CFU/mL in 10 mM HEPES pH 7.4, 150 mM NaCl, 1 h, 37°C, twofold dilutions starting at MBC. On the procedure: SYTOX® Green (Invitrogen, Carlsbad, CA, USA) is a high-affinity nucleic acid stain that only penetrates cells with compromised plasma membranes and emits fluorescence when bound to DNA ([Roth et al., 1997]). A SYTOX Green uptake assay ([Torcato et al., 2013]; [Sani et al., 2015]) was performed using P. aeruginosa to study the effect of viral protein-derived peptides on those bacterial membranes. Bacterial suspensions at 1 × 10^8 CFU/mL in MHB were centrifuged for 10 min at 4000 × g and the pellet resuspended in 10 mM HEPES buffer, pH 7.4, containing 150 mM NaCl, to a final concentration of 5 × 10^5 CFU/mL. The bacterial suspensions were incubated for 1 h at 37°C and 200 rpm, with twofold dilutions of each bactericidal viral protein-derived peptide in a range of concentrations starting at their corresponding MBC. Peptide-treated bacterial cells were incubated with 0.1 μM of SYTOX Green for 10 min, on ice and protected from light. The fluorescence emission intensity signal was measured by flow cytometry (excitation with 488 nm laser and detection at 530 nm with 30 nm bandpass) and a total of 50 000 events were recorded. […] The percentage of permeabilized cells was determined considering that untreated bacterial cells (negative control) are 0% permeabilized and bacterial cells treated with isopropyl alcohol (positive control) are 100% permeabilized. […]

Another assay has as its system P. aeruginosa cells. Kind of assay: Atomic force microscopy (AFM) imaging. The format is cell-based, Pseudomonas aeruginosa. The following applies: 1 h, 37°C. On the procedure: Atomic force microscopy (AFM) imaging was used to study the effect of the bactericidal viral protein-derived peptides on P. aeruginosa cells. Bacterial suspensions at 1 × 10^8 CFU/mL in MHB were centrifuged for 10 min at 4000 × g, and the pellet resuspended in HEPES buffer to a final concentration of 1 × 10^7 CFU/mL. The bacterial suspensions were treated with each peptide at concentrations corresponding to their MBC, as well as the concentrations above and below their MBC, and incubated for 1 h at 37°C and 200 rpm. As control, untreated bacterial suspension was also incubated using the same conditions. A 200 μL droplet of each test sample was applied on a poly-L-lysine-coated glass slide and allowed to deposit for 20 min at room temperature. Each sample was then rinsed 10 times with sterile Milli-Q water and allowed to dry for 30 min at room temperature. AFM images were acquired using a JPK NanoWizard II (Berlin, Germany) mounted on a Zeiss Axiovert 200 inverted microscope (Göttingen, Germany). Measurements were carried out in air and in intermittent contact mode using uncoated silicon ACL cantilevers from APPNano (Mountain View, CA, USA). ACL cantilevers had typical resonance frequencies of 190 kHz and a spring constant of 45 N/m. Bacteria were first visualized through the optical microscope before being selected for imaging. On average, 14 untreated bacteria and 10 individual bacterial cells were imaged for each peptide concentration, with a total area of 4 μm × 4 μm from three independent bacterial preparation slides. Height images were recorded and treated with JPK SPM data processing 5.1.8.

Assay [9] has as its system P. aeruginosa. Format: cell-based. The following applies: for bactericidal or bacteriostatic: bactericidal when MBC is equal or lower than four-fold MIC; for MBC: lowest concentration causing ≥99.9% cell death of the inoculum, TSA plates, 37°C, 24 h, triplicate. On the procedure:
as §2

In assay [10] the test system is P. aeruginosa. In words: Time-kill assay. Format: cell-based, Pseudomonas aeruginosa. The following applies: peptide at its MBC, after 180 min, MHB, 37°C, relative to control without peptide, three independent experiments. On the procedure: as §3
The subject of assay [11] is Staphylococcus aureus (S. aureus) ATCC 25923. Format: cell-based. The following applies: MHB, 5 × 10^5 CFU/mL, 37°C, 18 h, triplicate. On the procedure:
as §1

Another assay has as its system MRSA. The format is cell-based, Staphylococcus aureus. The following applies: for bactericidal or bacteriostatic: bactericidal when MBC is equal or lower than four-fold MIC; for MBC: lowest concentration causing ≥99.9% cell death of the inoculum, TSA plates, 37°C, 24 h, triplicate. On the procedure:
as §2

The test system of the next assay is E. coli. Format: cell-based, Escherichia coli. The following applies: for bactericidal or bacteriostatic: bactericidal when MBC is equal or lower than four-fold MIC; for MBC: lowest concentration causing ≥99.9% cell death of the inoculum, TSA plates, 37°C, 24 h, triplicate. On the procedure: as §2

Read-outs that look alike come from different tables or passages of the source. Where no end group is shown, it is not given here. Bounds are passed on as bounds.

Turning to GRRGPRRANQNGTRRRRRRT-NH2 [vCPP 1779], the MIC in assay [1] was >100 µM; in assay [2] it was 25 µM; in assay [3], 25 µM.

Regarding INWKKWWQVFYTVV-NH2 [vAMP 059], the bactericidal or bacteriostatic result in the assay on S. aureus [4] and with P. aeruginosa [9] was “bactericidal” throughout. For the same substance, the MBC in the assay on S. aureus [4] is 1.56 µM; against P. aeruginosa [9], 6.25 µM. In addition, the MIC in assay [5] is 0.78 µM; in assay [6], 6.25 µM. Moreover, the “reduction in bacterial viability” value in the assay with S. aureus [7] came out at 99.9%. Besides, in the assay on P. aeruginosa [8], the “membrane permeabilization (SYTOX Green)” value was “increase in membrane permeabilization with increasing peptide concentrations”. Moreover, the “morphological changes of cell envelope (AFM)” value with P. aeruginosa cells (all concentrations tested (MBC, above and below)) is reported as “pronounced collapse in P. aeruginosa cell envelope”. In the assay on P. aeruginosa [10], the “reduction of bacterial viability” value was determined as 99.7%.

Regarding KKRYKKKYKAYKPYKKKKKF-NH2 [vCPP 0275], the MIC was 50 µM in [1], 12.5 µM in assay [2], 25 to 50 µM in assay [11] and 100 µM in assay [3].

For the substance RPRRRATTRRRITTGTRRRR-NH2 [vCPP 0667], the minimum inhibitory concentration (MIC) stood at 100 µM in [1], 12.5 µM in assay [2], 50 µM in assay [11] and 25 µM in [3].

As to RRLTLRQLLGLGSRRRRRSR-NH2 [vCPP 0769], the bactericidal or bacteriostatic result is given as “only inhibited bacterial growth” in the assay with MRSA, “only inhibited bacterial growth” in the assay on S. aureus [4], “bactericidal” in the assay on E. coli and “bactericidal” in the assay with P. aeruginosa [9]. Moreover, the minimum bactericidal concentration (MBC) with MRSA was >100 µM; in the assay with S. aureus [4], >100 µM; with E. coli it was 50 µM; with P. aeruginosa [9], 6.25 µM. Besides, the minimum inhibitory concentration (MIC) in assay [1] worked out at 3.13 µM; in [2] it was 25 µM; in assay [11], 3.13 µM; in [3] it was 3.13 µM.

As to SPRRRTPSPRRRRSQSPRRR-NH2 [vCPP 0417], the MIC was >100 µM in [1], 25 µM in assay [2], >100 µM in [11] and 100 µM in assay [3].

For the substance WRRRYRRWRRRRRWRRRPRR-NH2 [vCPP 2319], the bactericidal or bacteriostatic result with MRSA, in the assay on S. aureus [4], in the assay with E. coli and in the assay with P. aeruginosa [9] was “bactericidal” each time. The MBC against MRSA, with S. aureus [4], in the assay with E. coli and against P. aeruginosa [9] was 3.13 µM throughout. In addition, in the assay on S. aureus [7], the “reduction in bacterial viability” value was found to be 90.9%. Besides, the “membrane permeabilization (SYTOX Green)” value in the assay on P. aeruginosa [8] is reported as “increase in membrane permeabilization with increasing peptide concentrations”. The “morphological changes of cell envelope (AFM)” value was “only minor alterations on bacterial topography” in the assay with P. aeruginosa cells (1.56 μM, a concentration below MBC) and “marked collapse of the membrane structure” with P. aeruginosa cells (treatment with MBC, or higher). Also, the minimal inhibitory concentration (MIC) in [1] was found to be 1.56 µM; in assay [2], 3.13 µM; in assay [11] it was 1.56 µM; in assay [3], 3.13 µM. For the same substance, the “reduction of bacterial viability” value with P. aeruginosa [10] came out at 97%.

These data come from article PMC5415599, “New Potent Membrane-Targeting Antibacterial Peptides from Viral Capsid Proteins” (Frontiers in Microbiology, 2017).
